Data set [1] concerns the target ALK2 (WT).
Data set [2] concerns the target ALK5.
Data set [3] concerns NanoBRET ALK2.
Data set [4] concerns DLA ALK5.
In data set [5] the target is T1, ALK2/ACVR1 (Homo sapiens, UniProt Q04771).
T1 construct: purchased Reaction Biology Corporation
T1 sequence (Q04771 21-509): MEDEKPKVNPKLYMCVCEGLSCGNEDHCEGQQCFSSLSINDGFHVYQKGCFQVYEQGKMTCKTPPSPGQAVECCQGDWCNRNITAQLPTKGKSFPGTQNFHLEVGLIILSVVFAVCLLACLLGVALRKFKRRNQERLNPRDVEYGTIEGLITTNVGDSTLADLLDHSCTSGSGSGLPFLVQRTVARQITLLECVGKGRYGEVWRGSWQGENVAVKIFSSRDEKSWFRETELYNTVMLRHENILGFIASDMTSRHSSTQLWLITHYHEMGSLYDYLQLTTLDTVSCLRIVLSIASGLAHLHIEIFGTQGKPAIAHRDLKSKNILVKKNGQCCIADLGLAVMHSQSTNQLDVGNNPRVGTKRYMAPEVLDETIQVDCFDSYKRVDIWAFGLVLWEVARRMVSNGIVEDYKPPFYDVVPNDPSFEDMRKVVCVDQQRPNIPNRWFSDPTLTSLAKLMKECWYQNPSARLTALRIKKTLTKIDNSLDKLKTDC
It is filed as biochemical. The conditions noted are these: for Fold Selectivity (ALK5/ALK2): biochemical ALK5 IC50 / ALK2 IC50; for fold decrease in inhibitory activity against ALK2: biochemical, relative to M4K2149.

The target in data set [6] is T2, ALK2 (Homo sapiens, UniProt Q04771).
T2 construct: host or cells: HEK-293
T2 sequence (Q04771 21-509): T1 sequence (Q04771 21-509)
As to the kind of experiment: NanoBRET target engagement assay in HEK293 cells. The conditions noted are these: DLA ALK5 IC50 / NanoBRET ALK2 IC50. It is filed as cell-based.

The nature of data set [7]: mouse liver microsomal stability assay. It is filed as in vitro ADME. The conditions noted are these: male, 60 min, 37 °C, read-out: MLM % Remaining at 1h. (In general: Liver microsomes are a subcellular fraction often used to study metabolism.)
Data set [8] relates to Caco-2 cells. As to the kind of experiment: Caco-2 permeability assay. The conditions noted are these: 5 μM. In general terms: Caco-2 monolayers are a common model of the intestinal barrier.
Data set [9] can be described thus: in vivo. The conditions noted are these: female, CB17 SCID, mouse, po, 10 mg/kg.
Data set [10] is described as follows: human liver microsomal stability assay. It is filed as in vitro ADME. Particulars: pH 7.4, human liver microsomes, 60 min, 37 °C, read-out: HLM % Remaining at 1h.
Data set [11] in a line: Caco-2 permeability assay. The conditions noted are these: human.
For data set [12], the target named is ALK2 (G328V).
The target of data set [13] is ALK2 (R258G).
Data set [14] is described as follows: in vitro. Particulars: human, Caco-2, pH 7.4.
Data set [15] relates to Caco-2 cells. The arrangement: method as in earlier work. The conditions noted are these: unpublished results ref 21; cited from earlier work.
Data set [16] deals with hERG.
The target in data set [17] is T3, hERG potassium channel (Homo sapiens, UniProt Q12809).
T3 construct: host or cells: HEK293
T3 sequence (Q12809 whole entry): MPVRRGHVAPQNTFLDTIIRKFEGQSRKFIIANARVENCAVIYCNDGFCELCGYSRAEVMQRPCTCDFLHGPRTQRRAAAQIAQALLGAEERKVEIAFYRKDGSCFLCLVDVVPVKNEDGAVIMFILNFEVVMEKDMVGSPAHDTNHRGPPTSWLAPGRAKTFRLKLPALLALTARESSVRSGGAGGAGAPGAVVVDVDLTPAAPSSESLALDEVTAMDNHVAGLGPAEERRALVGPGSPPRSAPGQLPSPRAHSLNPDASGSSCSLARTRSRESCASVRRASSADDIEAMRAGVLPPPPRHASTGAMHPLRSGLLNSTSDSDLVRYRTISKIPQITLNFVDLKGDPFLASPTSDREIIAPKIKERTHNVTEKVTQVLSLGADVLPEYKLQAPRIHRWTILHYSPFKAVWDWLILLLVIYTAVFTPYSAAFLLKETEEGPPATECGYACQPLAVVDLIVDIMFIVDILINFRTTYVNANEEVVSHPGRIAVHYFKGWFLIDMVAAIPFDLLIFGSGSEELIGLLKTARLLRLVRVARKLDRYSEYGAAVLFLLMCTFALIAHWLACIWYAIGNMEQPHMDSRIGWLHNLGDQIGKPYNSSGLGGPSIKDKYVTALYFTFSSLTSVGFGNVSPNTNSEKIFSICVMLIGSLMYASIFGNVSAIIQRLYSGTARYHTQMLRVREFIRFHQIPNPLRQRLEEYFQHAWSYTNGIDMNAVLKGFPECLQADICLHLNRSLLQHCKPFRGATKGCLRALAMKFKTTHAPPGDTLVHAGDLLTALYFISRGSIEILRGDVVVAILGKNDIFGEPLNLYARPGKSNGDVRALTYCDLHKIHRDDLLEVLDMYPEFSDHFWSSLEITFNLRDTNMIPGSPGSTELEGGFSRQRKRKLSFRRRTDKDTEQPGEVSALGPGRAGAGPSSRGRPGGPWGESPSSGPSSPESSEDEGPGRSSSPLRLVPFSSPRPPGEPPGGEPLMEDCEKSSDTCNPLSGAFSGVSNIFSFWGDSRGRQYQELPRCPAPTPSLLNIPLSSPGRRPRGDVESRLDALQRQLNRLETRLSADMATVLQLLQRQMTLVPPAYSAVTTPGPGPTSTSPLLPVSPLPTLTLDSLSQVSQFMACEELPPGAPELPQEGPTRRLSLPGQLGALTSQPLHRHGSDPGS
Briefly: hERG patch-clamp assay in HEK293 cells. Particulars: HEK293 cell-based patch-clamp. On the technique in general: hERG is a cardiac potassium channel; its block is linked to QT prolongation.

Setting [18] is: CD-1, mouse, microsomes, pH 7.4, mouse liver microsomes.
Where [19] appears, read: CD-1, pH 7.4, mouse liver microsomes.

The IC50 is the midpoint of a concentration-inhibition curve. Read a low IC50 as inhibition by little substance. Usually half-life stands for the time needed for the level to fall by half in the phase considered. Low readings indicate rapid decline, high ones slow decline. One may read the Papp A→B as the apparent permeability from the apical to the basolateral side of a cell layer. High values mean fast passage, low ones slow passage. The Papp B→A is how fast a substance crosses the layer from the basolateral side. Usually efflux ratio stands for the permeability from basolateral to apical divided by that in the opposite direction, in the common usage.

Where “and” joins values, the source holds several entries; their conditions need not be identical. Equal entries are not always repeated.

Take `CNC(=O)c1ccc(-c2cncc(-c3ccc(N4CCNCC4)cc3)c2C)cc1OC`: the IC50 was greater than 1000 nM in data set [1], greater than 5 µM in data set [2], greater than 5 µM in data set [3] and greater than 5 µM in data set [4].
For the molecule `COc1c(C(N)=O)csc1-c1cncc(-c2ccc(N3CCNCC3)cc2)c1C`, the IC50 was greater than 1000 nM in data set [1], greater than 5 µM in [2], greater than 5 µM in [3] and greater than 5 µM in [4].
Regarding `COc1cc(-c2cncc(-c3ccc(N4CCNCC4)cc3)c2C)ccc1C(=O)N(C)C`, the IC50 in data set [1] was greater than 1000 nM; in [2] it was greater than 5 µM; in [3], greater than 5 µM; in data set [4], greater than 5 µM.
As for `COc1cc(-c2cncc(-c3ccc(N4CCNCC4)cc3)c2C)sc1C(N)=O` [Compound 7a, 3-Methoxy-5-(4-methyl-5-(4-(piperazin-1-yl)phenyl)pyridin-3-yl)thiophene-2-carboxamide], the IC50 in [2] is greater than 5 µM. In addition, in data set [5], the “Fold Selectivity (ALK5/ALK2)” value is given as greater than 6 and the “fold decrease in inhibitory activity against ALK2” value is given as “greater than 40 fold”. The same molecule yielded an IC50 in data set [4] greater than 5 µM. Further, the “Cell-based Fold Selectivity” value in [6] was greater than 1.
Consider `COc1c(-c2cncc(-c3ccc(N4CCNCC4)cc3)c2C)csc1C(N)=O` [Compound 7b, 3-Methoxy-4-(4-methyl-5-(4-(piperazin-1-yl)phenyl)pyridin-3-yl)thiophene-2-carboxamide], for which the IC50 in [2] was greater than 5 µM. Further, in data set [5], the “Fold Selectivity (ALK5/ALK2)” value is recorded as greater than 7 and the “fold decrease in inhibitory activity against ALK2” value was “greater than 40 fold”. For the same molecule, in data set [4], the IC50 is greater than 5 µM. The “Cell-based Fold Selectivity” value in [6] is recorded as greater than 1.
As to `COc1cc(-c2cncc(-c3ccc(N4CCNCC4)cc3)c2C)cc(F)c1C(N)=O` [Compound 8b, 2-Fluoro-6-methoxy-4-(4-methyl-5-(4-(piperazin-1-yl)phenyl)pyridin-3-yl)benzamide], the share remaining at 1 h, 1 μM in data set [7] (setting [18]) was 98.4%; in data set [10] (human, microsomes) it was 105%. The Papp_AB in data set [8] (Caco-2, apical to basolateral) is listed as 0.3 10^-6 cm/s. Further, the Papp_BA in [8] (Caco-2, basolateral to apical) is on record as 10.7 10^-6 cm/s. Also, the half-life at 24 h in data set [9] was 78.6 min. The “Fold Selectivity (ALK5/ALK2)” value in data set [5] is reported as 80.
`COc1cc(-c2cncc(-c3ccc(N4CCNCC4)cc3)c2C)cc(OC)c1C(N)=O` [Compound 8c, 2,6-Dimethoxy-4-(4-methyl-5-(4-(piperazin-1-yl)phenyl)pyridin-3-yl)benzamide]: the share remaining at 1 h, 1 μM in data set [7] (setting [19]) came to 99.8%. Besides, in data set [11] (Caco-2, pH 7.4), the Papp A→B at 120 min, 5 μM was found to be 0.1 ×10⁻⁶ cm/s and the Papp B→A at 120 min, 5 μM came to 6.1 ×10⁻⁶ cm/s. Also, the “Fold Selectivity (ALK5/ALK2)” value in data set [5] is on record as 9. Further, in data set [10] (pooled liver microsomes), the amount remaining at 1 h, 1 μM turned out to be 88.8%.
Turning to `COc1ccc(-c2cncc(-c3ccc(N4CCNCC4)cc3)c2C)cc1C(N)=O` [Compound 14a, 2-Methoxy-5-(4-methyl-5-(4-(piperazin-1-yl)phenyl)pyridin-3-yl)benzamide], the IC50 was greater than 1000 nM in data set [1], greater than 5 µM in [2] and greater than 5 µM in [4]. In data set [6], the “Cell-based Fold Selectivity” value is greater than 7.
`COc1cc(C(N)=O)cc(-c2cncc(-c3ccc(N4CCNCC4)cc3)c2C)c1` [Compound 14b, 3-Methoxy-5-(4-methyl-5-(4-(piperazin-1-yl)phenyl)pyridin-3-yl)benzamide]: the 50% inhibitory concentration (IC50) in data set [2] and in data set [4] was greater than 5 µM each time. For the same molecule, the “Fold Selectivity (ALK5/ALK2)” value in [5] is greater than 49. For the same molecule, the “Cell-based Fold Selectivity” value in data set [6] is recorded as greater than 8.
Take `Cc1c(-c2ccc(N3CCNCC3)cc2)cncc1-c1ccc2c(c1)CNC2=O` [Compound 20a, 5-(4-Methyl-5-(4-(piperazin-1-yl)phenyl)pyridin-3-yl)isoindolin-1-one]: the half-inhibitory concentration (IC50) in data set [2] is greater than 5 µM. In addition, the “Fold Selectivity (ALK5/ALK2)” value in data set [5] is greater than 7.
In turn, `Cc1c(-c2ccc(C(N)=O)cc2)cncc1-c1ccc(N2CCNCC2)cc1` [Compound 20b, 4-(4-Methyl-5-(4-(piperazin-1-yl)phenyl)pyridin-3-yl)benzamide] showed an IC50 in data set [2] greater than 5 µM. Moreover, in [5], the “Fold Selectivity (ALK5/ALK2)” value is greater than 10 and the “fold decrease in inhibitory activity against ALK2” value is 28 fold. In data set [4], this molecule displayed an IC50 greater than 5 µM. Further, the “Cell-based Fold Selectivity” value in data set [6] is given as greater than 1.
For the molecule `COCc1cc(-c2cncc(-c3ccc(N4CCNCC4)cc3)c2C)ccc1C(N)=O` [Compound 20c, 2-(Methoxymethyl)-4-(4-methyl-5-(4-(piperazin-1-yl)phenyl)pyridin-3-yl)benzamide], the IC50 in data set [2] and in data set [4] was greater than 5 µM each time. Further, the “Fold Selectivity (ALK5/ALK2)” value in data set [5] is listed as greater than 7. Moreover, in data set [6], the “Cell-based Fold Selectivity” value is on record as greater than 1.
Consider `Cc1c(-c2ccc(N3CCNCC3)cc2)cncc1-c1ccc(C(N)=O)c(F)c1` [Compound 20d, 2-Fluoro-4-(4-methyl-5-(4-(piperazin-1-yl)phenyl)pyridin-3-yl)benzamide], for which the IC50 in [2] and in data set [4] was greater than 5 µM each time. In addition, the “Fold Selectivity (ALK5/ALK2)” value in data set [5] is listed as greater than 19. Moreover, the “Cell-based Fold Selectivity” value in data set [6] is recorded as greater than 4.
For `COc1cc(-c2cncc(-c3ccc(N4CCNCC4)cc3)c2C)cc(Cl)c1C(N)=O` [Compound 20e, 2-Chloro-6-methoxy-4-(4-methyl-5-(4-(piperazin-1-yl)phenyl)pyridin-3-yl)benzamide], the IC50 in [12] was less than 2 nM; in data set [4], greater than 5 µM. Moreover, in data set [6], the “Cell-based Fold Selectivity” value is reported as greater than 54.
With `COc1cc(-c2cncc(-c3ccc(N4CCN(C)CC4)cc3)c2C)cc(OC)c1C(N)=O` [Compound 26d, 2,6-Dimethoxy-4-(4-methyl-5-(4-(4-methylpiperazin-1-yl)phenyl)pyridin-3-yl)benzamide], the IC50 in data set [1] is less than 3 nM; in [13], less than 2 nM; in data set [12], less than 2 nM. For the same molecule, the amount remaining at 1 h, 1 μM turned out to be 85.2% in data set [7] (setting [19]) and 81.4% in data set [10] (pooled liver microsomes). In addition, the apical-to-basolateral permeability (Papp A→B) at 120 min, 5 μM in [11] (Caco-2, pH 7.4) worked out at 0.7 ×10⁻⁶ cm/s. This molecule had a Papp B→A at 120 min, 5 μM in data set [11] (Caco-2, pH 7.4) of 13.9 ×10⁻⁶ cm/s. The efflux ratio at 120 min, 5 μM in data set [11] (Caco-2, pH 7.4) was greater than 10.
On to `COc1cc(-c2cncc(-c3ccc(N4CCN(C(C)C)CC4)cc3)c2C)cc(OC)c1C(N)=O` [Compound 26e, 4-(5-(4-(4-Isopropylpiperazin-1-yl)phenyl)-4-methylpyridin-3-yl)-2,6-dimethoxybenzamide], for which the amount remaining at 1 h, 1 μM in [7] (setting [19]) is 99.5%; in data set [10] (pooled liver microsomes), 98%. In [11] (Caco-2, pH 7.4), this molecule showed a Papp A→B at 120 min, 5 μM of 0.9 ×10⁻⁶ cm/s. Further, the Papp B→A at 120 min, 5 μM in data set [11] (Caco-2, pH 7.4) was 14.4 ×10⁻⁶ cm/s. Besides, the efflux ratio at 120 min, 5 μM in [11] (Caco-2, pH 7.4, Efflux ratio, Caco-2, Papp (B-to-A)/Papp (A-to-B)) is greater than 10. Also, in data set [5], the “Fold Selectivity (ALK5/ALK2)” value came to 13.
In [14], `COc1cc(-c2cncc(-c3ccc(N4C[C@@H](C)N(C)[C@@H](C)C4)cc3)c2C)cc(OC)c1C(N)=O` [Compound 26f, 2,6-Dimethoxy-4-(4-methyl-5-(4-((3R,5S)-3,4,5-trimethylpiperazin-1-yl)phenyl)pyridin-3-yl)benzamide] yielded a Papp A→B of 0.7 ×10⁻⁶ cm/s and a Papp B→A of 12.6 ×10⁻⁶ cm/s. The share remaining at 1 h, 1 μM in data set [7] (setting [18]) was determined as 57.5%. Moreover, in data set [3], the IC50 came to 0.021 µM. In addition, the share remaining at 1 h, 1 μM in data set [10] (human, microsomes) is 55.7%.
On to `COc1cc(-c2cncc(-c3ccc(N4CCNCC4)cc3)c2C)ccc1C(N)=O` [Compound M4K2149], for which, in data set [15], the efflux ratio is on record as 8.1. The IC50 in [16] was >50 µM and >30 µM; in data set [17] it was greater than 50 µM.
